Measurements as given in PubChem BioAssay AID434997 (The Scripps Research Institute Molecular Screening Center, 2010).

Biological target: NADPH oxidase 1 (Homo sapiens) (UniProt Q9Y5S8)
Experiment: potency of NOX1 inhibition in cells – cell-based, luminescence, cherry picks 2, dose response (AID 434997)
Conditions: NOX1-expressing cells, ROS luminescence

Sequence of NADPH oxidase 1 (Homo sapiens) (Q9Y5S8 whole entry, looked up): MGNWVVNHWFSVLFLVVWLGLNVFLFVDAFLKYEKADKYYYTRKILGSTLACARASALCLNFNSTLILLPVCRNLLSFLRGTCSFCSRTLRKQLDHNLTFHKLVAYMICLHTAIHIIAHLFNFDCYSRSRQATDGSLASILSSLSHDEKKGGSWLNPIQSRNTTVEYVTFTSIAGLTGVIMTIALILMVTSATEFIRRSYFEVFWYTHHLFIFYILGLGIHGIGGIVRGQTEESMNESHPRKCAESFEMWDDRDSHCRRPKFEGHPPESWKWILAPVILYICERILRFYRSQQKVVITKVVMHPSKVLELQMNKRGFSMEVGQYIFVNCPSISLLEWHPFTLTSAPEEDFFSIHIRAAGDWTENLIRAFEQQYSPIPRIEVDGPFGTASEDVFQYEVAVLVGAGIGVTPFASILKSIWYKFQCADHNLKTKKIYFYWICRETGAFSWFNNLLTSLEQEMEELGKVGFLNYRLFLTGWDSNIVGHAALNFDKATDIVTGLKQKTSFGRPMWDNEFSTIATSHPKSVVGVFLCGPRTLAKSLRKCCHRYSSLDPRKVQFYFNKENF

## FC(F)(F)c1ccc2c(c1)Nc1ccccc1S2
  IC50: 320 nM
